Measured values from ChEMBL document CHEMBL3046869, “Investigation of myorelaxant activity of 9-aryl-3,4,6,7-tetrahydroacridine-1,8-(2H,5H,9H,10H)-diones in isolated rabbit gastric fundus” (2012).
Active and inactive are the calls of the source. No cut-off for these calls is given here.

Tests used:
Conditions in all cases: Stomach
[1] = system: Gastric fundus smooth muscle; test: Myorelaxant activity in noradrenaline-precontracted New Zealand Oryctolagus cuniculus (rabbit) gastric fundus smooth muscle strips in presence of Ca2+-activated K+ channel blocker TEA; type: functional
[2] = system: Gastric fundus smooth muscle; test: Myorelaxant activity in noradrenaline-precontracted New Zealand Oryctolagus cuniculus (rabbit) gastric fundus smooth muscle strips in presence of large-conductance Ca2+-activated K+ channel blocker iberiotoxin; type: functional
Oryctolagus cuniculus [3] = organism: Oryctolagus cuniculus; test: Activation of potassium channel in noradrenaline-precontracted New Zealand Oryctolagus cuniculus (rabbit) gastric fundus smooth muscle strips assessed as muscle relaxant activity; type: tissue-based
[4] = system: Gastric fundus smooth muscle; test: Myorelaxant activity in noradrenaline-precontracted New Zealand Oryctolagus cuniculus (rabbit) gastric fundus smooth muscle strips in presence of KV blocker 4-aminopyridine
[5] = system: Gastric fundus smooth muscle; test: Myorelaxant activity in noradrenaline-precontracted New Zealand Oryctolagus cuniculus (rabbit) gastric fundus smooth muscle strips in presence of small-conductance Ca2+-activated K+ channel blocker apamine; type: functional
[6] = system: Gastric fundus smooth muscle; test: Myorelaxant activity in noradrenaline-precontracted New Zealand Oryctolagus cuniculus (rabbit) gastric fundus smooth muscle strips in presence of K-ATP channel blocker glibenclamide; type: functional
Oryctolagus cuniculus [7] = organism: Oryctolagus cuniculus; test: Activation of potassium channel in noradrenaline-precontracted New Zealand Oryctolagus cuniculus (rabbit) gastric fundus smooth muscle strips assessed as muscle relaxant activity relative to control; type: tissue-based

Row | SMILES | Emax [1] | Emax [2] | pD2 (Oryctolagus cuniculus [3]) | Emax [4] | Emax [5] | Emax [6] | Emax (Oryctolagus cuniculus [7])
1 | CC1CC(=O)C2=C(C1)NC1=C(C(=O)CC(C)C1)C2c1ccccc1F (configuration not stated) | inactive | inactive | inactive | inactive | inactive | inactive | inactive
2 | CC1CC(=O)C2=C(C1)NC1=C(C(=O)CC(C)C1)C2c1ccc([N+](=O)[O-])cc1 (configuration not stated) | 74.4% | 82.5% | 4.66 | 51.4% | 54.5% | 52% | 53.9%
3 | CC(N/C(=N\C#N)Nc1ccncc1)C(C)(C)C (configuration not stated) |  |  | 4.9 |  |  |  | 73.5%
4 | CC1CC(=O)C2=C(C1)NC1=C(C(=O)CC(C)C1)C2c1ccc(C#N)cc1 (configuration not stated) | 45.2% | 52% | 4.57 | 51.1% | 45.7% | 45.2% | 46%
5 | CC1CC(=O)C2=C(C1)NC1=C(C(=O)CC(C)C1)C2c1ccccc1[N+](=O)[O-] (configuration not stated) | inactive | inactive | inactive | inactive | inactive | inactive | inactive
6 | CC1CC(=O)C2=C(C1)NC1=C(C(=O)CC(C)C1)C2c1cccc(C#N)c1 (configuration not stated) | 44.6% | 30.9% | 4.7 | 32.3% | 60.6% | 66% | 56%
7 | CC1CC(=O)C2=C(C1)NC1=C(C(=O)CC(C)C1)C2c1ccccc1C(F)(F)F (configuration not stated) | inactive | inactive | inactive | inactive | inactive | inactive | inactive
8 | CC1CC(=O)C2=C(C1)NC1=C(C(=O)CC(C)C1)C2c1cccc(C(F)(F)F)c1 (configuration not stated) | inactive | inactive | inactive | inactive | inactive | inactive | inactive
9 | CC1CC(=O)C2=C(C1)NC1=C(C(=O)CC(C)C1)C2c1cccc([N+](=O)[O-])c1 (configuration not stated) | 54.6% | 54.4% | 4.57 | 54.1% | 35.3% | 51.8% | 62.1%
10 | CC1CC(=O)C2=C(C1)NC1=C(C(=O)CC(C)C1)C2c1ccc(C(F)(F)F)cc1 (configuration not stated) | 35.1% | 43.3% | 4.68 | 14% | 26.7% | 43.8% | 33.8%
11 | CC1CC(=O)C2=C(C1)NC1=C(C(=O)CC(C)C1)C2c1ccc(F)cc1 (configuration not stated) | 18.8% | 39.1% | 4.6 | 21.8% | 39.3% | 46.7% | 37.2%
